We go through ten molecules from ChEMBL document CHEMBL1201862, “PubChem BioAssay data set” (2004).

Test systems include HCT-116; ACHN; SN12C; HT-29; SK-MEL-28; HCT-15; K562; OVCAR-5; SNB-19; HOP-62; HL-60; DU-145; SF-539; KM12; RXF 393; SK-MEL-5; HOP-92; SK-MEL-2; SF-268; U-251.
Holding throughout (assay): inhibition of tumour cell growth, NCI panel, 48 h

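Following 48 hours of exposure in 96-well plates, responses at five concentrations were used to interpolate endpoints linearly. GI50: concentration for 50% inhibition of growth.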 The source made the active and inactive calls. Rule as the data show it: active = GI50 up to about 1.1 µM and inactive = higher. Non-standard residues stand in square brackets, D forms with d. Residues, ends and D or L forms follow the SMILES beside them. *: point of attachment. Ac5c = NC1(C(=O)O)CCCC1; Cbz = O=C(OCc1ccccc1)*; Boc = CC(C)(C)OC(=O)*; tBu = CC(C)(C)*

As for `COc1cc(/C=C(\C#N)c2nc3ccccc3o2)ccc1O`, the GI50 is 16.5 µM (inactive) with HCT-116; 19 µM (inactive) in the experiment with ACHN; 34.7 µM (inactive) in the experiment on SN12C; 22.3 µM (inactive) in the experiment on HT-29; 17.7 µM (inactive) with SK-MEL-28; 16.4 µM in the experiment with HCT-15. For the same molecule, the GI50 in the experiment with K562 is 35.4 µM (inactive); in the experiment with OVCAR-5, 22 µM (inactive); in the experiment with SNB-19, 32.4 µM (inactive); in the experiment with HOP-62, 21 µM (inactive); in the experiment on HL-60, 19.6 µM (inactive); in the experiment with DU-145, 25.6 µM (inactive). For the same molecule, the GI50 in the experiment with SF-539 was 12 µM (inactive); with KM12 it was 17.6 µM (inactive); in the experiment with RXF 393, 39.5 µM (inactive); with SK-MEL-5, 12.6 µM (inactive); in the experiment on HOP-92, 14.1 µM (inactive); with SK-MEL-2 it was 18 µM (inactive). Also, the GI50 was 19.9 µM (inactive) with SF-268 and 12.3 µM (inactive) in the experiment on U-251.

Consider `CC(=O)OCC1OC(n2cc(F)c(=O)[nH]c2=O)C(OC(C)=O)C1OC(C)=O` (stereo not given), for which the GI50 is 4.25 µM (inactive) in the experiment on HCT-116; 12.9 µM (inactive) with ACHN; 32.5 µM (inactive) with SN12C; 27.9 µM (inactive) in the experiment with HT-29; 25.2 µM (inactive) in the experiment on SK-MEL-28; 13.7 µM in the experiment on HCT-15. The GI50 was 9.27 µM (inactive) with K562; 33.8 µM (inactive) in the experiment on OVCAR-5; 30.8 µM (inactive) in the experiment on SNB-19; 44 µM (inactive) with HOP-62; 27.9 µM (inactive) in the experiment with HL-60; 70.5 µM (inactive) with DU-145. Also, the GI50 in the experiment with SF-539 was 7.55 µM (inactive); in the experiment on KM12 it was 8.41 µM (inactive); in the experiment with RXF 393, 45.9 µM (inactive); with SK-MEL-5, 56 µM (inactive); in the experiment on HOP-92, 16.7 µM (inactive); with SK-MEL-2, 28.2 µM (inactive). Moreover, the GI50 was 12.5 µM (inactive) in the experiment on SF-268 and 13.4 µM (inactive) in the experiment on U-251.

As for `NC12Oc3cc(O)cc(O)c3C1(c1ccc(Cl)cc1)c1c(O)cc(O)cc1O2` (stereo not given), the GI50 with HCT-116 was 46 µM (inactive); in the experiment with ACHN it was > 100 µM (inactive); in the experiment on SN12C it was 21.4 µM (inactive); with HT-29, 35.4 µM (inactive); in the experiment with SK-MEL-28, 61.2 µM (inactive); in the experiment on HCT-15, greater than 100 µM. Further, the GI50 in the experiment on K562 was 30.8 µM (inactive); in the experiment on OVCAR-5 it was > 100 µM (inactive); in the experiment on SNB-19, 73.1 µM (inactive); in the experiment on HOP-62, 68.9 µM (inactive); in the experiment on HL-60 it was 27.4 µM (inactive); with DU-145 it was > 100 µM (inactive). Further, the GI50 was 42.8 µM (inactive) with SF-539; > 100 µM (inactive) with KM12; 32.3 µM (inactive) with RXF 393; 37.5 µM (inactive) with SK-MEL-5; 25.9 µM (inactive) with HOP-92; 36.6 µM (inactive) with SK-MEL-2. The figures for the GI50 in the experiment with SF-268 and in the experiment on U-251 were 69 µM (inactive) and 65.8 µM (inactive), respectively.

Consider `Cc1ccc(CN2CCN(Cc3ccc(C)o3)C(C)C2)o1` (stereo not given), for which the GI50 in the experiment on HCT-116 is > 100 µM (inactive); in the experiment with ACHN it was > 100 µM (inactive); in the experiment on SN12C, > 100 µM (inactive); with HT-29 it was > 100 µM (inactive); in the experiment with SK-MEL-28 it was > 100 µM (inactive); in the experiment on HCT-15 it was greater than 100 µM. In addition, the GI50 in the experiment with K562, with OVCAR-5, with SNB-19, with HOP-62, in the experiment with HL-60 and in the experiment on DU-145 was > 100 µM (inactive) throughout. In addition, the GI50 in the experiment on SF-539, with KM12, in the experiment on RXF 393, in the experiment with SK-MEL-5, in the experiment on HOP-92 and in the experiment with SK-MEL-2 was > 100 µM (inactive) in each case. The GI50 in the experiment with SF-268 and in the experiment on U-251 was > 100 µM (inactive) throughout.

As to `O=c1[nH]c(=S)[nH]n1C(=S)n1[nH]c(=S)[nH]c1=O`, the GI50 was > 100 µM (inactive) with HCT-116; > 100 µM (inactive) in the experiment on ACHN; > 100 µM (inactive) with SN12C; > 100 µM (inactive) in the experiment with HT-29; > 100 µM (inactive) with SK-MEL-28; greater than 100 µM with HCT-15. Moreover, the GI50 with K562 was > 100 µM (inactive); in the experiment on OVCAR-5, > 100 µM (inactive); in the experiment on SNB-19 it was > 100 µM (inactive); with HOP-62, > 100 µM (inactive); with HL-60 it was 45.2 µM (inactive); with DU-145, > 100 µM (inactive). Moreover, the GI50 in the experiment on SF-539, in the experiment with KM12, with RXF 393, in the experiment on SK-MEL-5, in the experiment with HOP-92 and in the experiment with SK-MEL-2 was > 100 µM (inactive) each time. In addition, the GI50 with SF-268 and in the experiment with U-251 was > 100 µM (inactive) each time.

With `COCC1OC(OC2C3=C(C(C)C)CCC3(C)/C=C3\C(CCC3(O)COC)C(C)C2O)C(O)C2OC3OC12OC3(C)C1CO1` (stereo not given), the GI50 is 34 µM (inactive) in the experiment with HCT-116; 47.2 µM (inactive) in the experiment on ACHN; 50.9 µM (inactive) with SN12C; 34.8 µM (inactive) with HT-29; 31.6 µM (inactive) in the experiment with SK-MEL-28; 25.1 µM with HCT-15. Moreover, the GI50 in the experiment on K562 is 25.1 µM (inactive); in the experiment on OVCAR-5, > 100 µM (inactive); with SNB-19, 28.1 µM (inactive); in the experiment with HOP-62 it was 89.5 µM (inactive); in the experiment on HL-60, 16.3 µM (inactive); with DU-145, 72.6 µM (inactive). In addition, the GI50 is 24.8 µM (inactive) with SF-539; 52.8 µM (inactive) in the experiment on KM12; 21.2 µM (inactive) in the experiment with RXF 393; 18 µM (inactive) with SK-MEL-5; 17.2 µM (inactive) with HOP-92; 83.6 µM (inactive) with SK-MEL-2. In addition, the GI50 was 16.9 µM (inactive) with SF-268 and 24 µM (inactive) with U-251.

For `COc1cc2c(cc1OCCCC(=O)Nc1cc(C(=O)Nc3cc(C(=O)Nc4cc(C(=O)NCCCN(C)C)n(C)n4)n(C)c3)n(C)c1)N=CC1CCCN1C2=O` (stereo not given), the GI50 was 51.4 µM (inactive) in the experiment on HCT-116; 17.1 µM (inactive) in the experiment on ACHN; 22.5 µM (inactive) with SN12C; 20.3 µM (inactive) with HT-29; 17.1 µM (inactive) in the experiment with SK-MEL-28; 28.5 µM in the experiment with HCT-15. In addition, the GI50 was 5.2 µM (inactive) in the experiment with K562; 40 µM (inactive) in the experiment on OVCAR-5; 22.5 µM (inactive) in the experiment on SNB-19; 25.8 µM (inactive) with HOP-62; 2.52 µM (inactive) in the experiment with HL-60; 32.1 µM (inactive) in the experiment with DU-145. Moreover, the GI50 was 23.1 µM (inactive) in the experiment with SF-539; 24 µM (inactive) in the experiment on KM12; 19.8 µM (inactive) in the experiment with RXF 393; 19.5 µM (inactive) in the experiment on SK-MEL-5; 21.3 µM (inactive) in the experiment on HOP-92; 23.1 µM (inactive) with SK-MEL-2. Further, the GI50 is 27.9 µM (inactive) in the experiment with SF-268 and 23.9 µM (inactive) in the experiment on U-251.

Take `COC(=O)C1(NC(=O)C(Cc2ccccc2)NC(=O)C(NC(=O)C(CCCCNC(=O)OC(C)(C)C)NC(=O)C(Cc2c[nH]c3ccccc23)NC(=O)C(Cc2ccccc2)NC(=O)OCc2ccccc2)C(C)OC(C)(C)C)CCCC1` (stereo not given) (Cbz-FWK(Boc)T(tBu)F[Ac5c]-OMe; configuration not given here): the GI50 was > 100 µM (inactive) in the experiment on HCT-116; > 100 µM (inactive) in the experiment on ACHN; > 100 µM (inactive) in the experiment with SN12C; > 100 µM (inactive) with HT-29; > 100 µM (inactive) with SK-MEL-28; greater than 100 µM in the experiment on HCT-15. The GI50 in the experiment with K562 was > 100 µM (inactive); in the experiment with OVCAR-5 it was 64.1 µM (inactive); with SNB-19, 52.2 µM (inactive); in the experiment on HOP-62, 65 µM (inactive); in the experiment with HL-60, > 100 µM (inactive); in the experiment on DU-145, > 100 µM (inactive). Besides, the GI50 in the experiment on SF-539 was > 10 µM (inactive); with KM12, > 100 µM (inactive); in the experiment with RXF 393, > 100 µM (inactive); in the experiment with SK-MEL-5, 3.96 µM (inactive); with HOP-92 it was 68.9 µM (inactive); in the experiment with SK-MEL-2, 6.61 µM (inactive). The GI50 in the experiment on SF-268 was > 100 µM (inactive); in the experiment with U-251, 34 µM (inactive).

Turning to `O=C1c2cccnc2-c2nccc3c2c1nc1ccccc13` [ASCIDIDEMIN], the GI50 in the experiment on HCT-116 was 0.0352 µM (active); in the experiment with ACHN, 0.0371 µM (active); in the experiment on SN12C it was 0.186 µM (active); in the experiment on HT-29 it was 1.19 µM (inactive); in the experiment with SK-MEL-28, 0.321 µM (active); in the experiment with HCT-15 it was 0.037 µM. For the same molecule, the GI50 is 0.166 µM (active) in the experiment with K562; 0.475 µM (active) with OVCAR-5; 0.281 µM (active) with SNB-19; 0.097 µM (active) in the experiment on HOP-62; 0.1 µM (active) in the experiment on HL-60; 0.0621 µM (active) in the experiment on DU-145. For the same molecule, the GI50 in the experiment with SF-539 was 0.189 µM (active); in the experiment on KM12 it was 0.183 µM (active); in the experiment on RXF 393, 0.14 µM (active); in the experiment on SK-MEL-5, 0.0583 µM (active); in the experiment on HOP-92, 0.49 µM (active); in the experiment with SK-MEL-2, 0.184 µM (active). The GI50 is 0.109 µM (active) in the experiment on SF-268 and 0.0845 µM (active) in the experiment with U-251.

Turning to `Nc1ccccc1NC(=O)c1ccc(CNC(=O)OCc2cccnc2)cc1` [ENTINOSTAT], the GI50 in the experiment on HCT-116 is 0.415 µM (active); in the experiment with ACHN it was 1.88 µM (inactive); with SN12C, 4.75 µM (inactive); with HT-29, 0.524 µM (active); in the experiment with SK-MEL-28 it was 1.97 µM (inactive); in the experiment on HCT-15 it was 3.56 µM. Moreover, the GI50 in the experiment with K562 was 0.627 µM (active); with OVCAR-5 it was 0.125 µM (active); in the experiment with SNB-19, 2.65 µM (inactive); in the experiment on HOP-62, 2 µM (inactive); in the experiment on HL-60, 0.659 µM (active); in the experiment on DU-145, 0.805 µM (active). Moreover, the GI50 in the experiment with SF-539 is 3.76 µM (inactive); in the experiment on KM12, > 23.4 µM (inactive); in the experiment with RXF 393, 2.16 µM (inactive); in the experiment on SK-MEL-5, 0.624 µM (active); with HOP-92 it was 0.989 µM (active); in the experiment with SK-MEL-2, 0.424 µM (active). For the same molecule, the GI50 was 2.43 µM (inactive) with SF-268 and 1.54 µM (inactive) in the experiment on U-251.
